From ChEMBL document CHEMBL4261613, “Discovery of a potent orally bioavailable retinoic acid receptor-related orphan receptor-gamma-t (RORγt) inhibitor, S18-000003” (Bioorg Med Chem Lett, 2018)
Values after ≈ are worked out from the molar mass of the structure shown.

What was measured:
[1] = target: T1, Nuclear receptor ROR-gamma (Homo sapiens, UniProt P51449); experiment: (§1) Transrepression of recombinant human GAL4-DBD fused RORgammat LBD expressed in HEK293 cells after 20 hrs by luciferase reporter gene assay; assay type: cell-based
T1 sequence (P51449 whole entry): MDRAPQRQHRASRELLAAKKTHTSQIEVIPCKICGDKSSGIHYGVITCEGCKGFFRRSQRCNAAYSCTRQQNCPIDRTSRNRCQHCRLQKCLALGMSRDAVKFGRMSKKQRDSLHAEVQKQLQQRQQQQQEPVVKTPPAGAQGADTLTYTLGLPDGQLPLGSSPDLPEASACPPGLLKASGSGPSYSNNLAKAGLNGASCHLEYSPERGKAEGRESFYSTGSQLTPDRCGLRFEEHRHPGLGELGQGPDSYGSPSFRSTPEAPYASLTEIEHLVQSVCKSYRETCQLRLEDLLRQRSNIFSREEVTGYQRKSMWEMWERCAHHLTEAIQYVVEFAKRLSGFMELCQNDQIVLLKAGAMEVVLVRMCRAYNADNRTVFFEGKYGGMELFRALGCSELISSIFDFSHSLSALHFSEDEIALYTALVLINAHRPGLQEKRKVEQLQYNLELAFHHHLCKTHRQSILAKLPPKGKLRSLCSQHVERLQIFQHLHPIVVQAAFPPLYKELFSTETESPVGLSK

[2] = target: T2, Nuclear receptor ROR-gamma (Homo sapiens) (UniProt P51449); experiment: as §1; assay type: cell-based
T2 sequence (whole entry): T1 sequence (P51449 whole entry)

[3] = target: T3, Oxysterols receptor LXR-beta (Homo sapiens, UniProt P55055); experiment: Transrepression of recombinant human GAL4-DBD fused LXRbeta LBD expressed in HEK293 cells after 20 hrs by luciferase reporter gene assay; assay type: cell-based
T3 sequence (P55055 whole entry): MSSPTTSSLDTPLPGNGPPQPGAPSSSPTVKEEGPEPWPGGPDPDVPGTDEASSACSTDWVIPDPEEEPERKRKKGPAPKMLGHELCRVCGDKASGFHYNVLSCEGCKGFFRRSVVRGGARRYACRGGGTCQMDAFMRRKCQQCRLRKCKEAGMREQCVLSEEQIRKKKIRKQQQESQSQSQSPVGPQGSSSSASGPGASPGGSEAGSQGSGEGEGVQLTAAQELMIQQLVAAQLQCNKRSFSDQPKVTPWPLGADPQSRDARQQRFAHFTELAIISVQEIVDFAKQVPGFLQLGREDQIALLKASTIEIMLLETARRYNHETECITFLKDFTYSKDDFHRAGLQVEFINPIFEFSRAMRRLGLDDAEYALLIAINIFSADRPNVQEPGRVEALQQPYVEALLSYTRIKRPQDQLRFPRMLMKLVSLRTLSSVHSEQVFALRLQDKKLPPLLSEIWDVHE

[4] = Solubility of the compound in KH2PO4/Na2HPO4 buffer at pH 6.8 by shake-flask method; assay type: physicochemical
[5] = target: T4, Oxysterols receptor LXR-alpha (Homo sapiens, UniProt Q13133); experiment: Transrepression of recombinant human GAL4-DBD fused LXRalpha LBD expressed in HEK293 cells after 20 hrs by luciferase reporter gene assay; assay type: cell-based
T4 sequence (Q13133 whole entry): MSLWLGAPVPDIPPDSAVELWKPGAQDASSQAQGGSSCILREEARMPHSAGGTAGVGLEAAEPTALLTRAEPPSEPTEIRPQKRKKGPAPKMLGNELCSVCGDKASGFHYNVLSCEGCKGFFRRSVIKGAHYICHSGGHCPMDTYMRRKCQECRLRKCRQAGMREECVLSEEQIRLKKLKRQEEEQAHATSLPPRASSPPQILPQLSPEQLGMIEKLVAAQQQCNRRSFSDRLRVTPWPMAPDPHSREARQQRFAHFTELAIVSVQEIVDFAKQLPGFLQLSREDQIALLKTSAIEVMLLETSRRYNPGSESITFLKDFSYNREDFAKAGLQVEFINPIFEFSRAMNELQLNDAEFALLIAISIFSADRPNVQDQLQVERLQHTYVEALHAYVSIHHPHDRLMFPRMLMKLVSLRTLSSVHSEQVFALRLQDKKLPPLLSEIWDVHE

[6] = target: T5, Nuclear receptor ROR-gamma (Mus musculus) (UniProt P51450); experiment: (§2) Transrepression of recombinant mouse GAL4-DBD fused RORgammat LBD expressed in HEK293 cells after 20 hrs by luciferase reporter gene assay; assay type: cell-based
T5 sequence (whole entry): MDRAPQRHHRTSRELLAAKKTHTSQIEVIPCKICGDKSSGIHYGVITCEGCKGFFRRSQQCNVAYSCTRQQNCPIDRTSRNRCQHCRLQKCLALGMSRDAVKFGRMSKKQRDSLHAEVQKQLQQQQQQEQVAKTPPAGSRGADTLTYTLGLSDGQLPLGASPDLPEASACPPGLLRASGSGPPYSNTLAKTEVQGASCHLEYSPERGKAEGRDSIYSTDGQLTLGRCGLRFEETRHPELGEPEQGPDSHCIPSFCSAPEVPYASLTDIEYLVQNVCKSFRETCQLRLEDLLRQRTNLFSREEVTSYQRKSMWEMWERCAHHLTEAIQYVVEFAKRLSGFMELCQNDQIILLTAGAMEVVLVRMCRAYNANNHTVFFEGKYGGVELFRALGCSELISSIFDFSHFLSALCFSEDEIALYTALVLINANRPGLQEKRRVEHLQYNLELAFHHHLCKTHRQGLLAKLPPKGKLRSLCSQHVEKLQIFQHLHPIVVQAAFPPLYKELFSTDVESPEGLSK

[7] = target: T6, Nuclear receptor ROR-gamma (Mus musculus, UniProt P51450); experiment: as §2; assay type: cell-based
T6 sequence (P51450 whole entry): T5 sequence (whole entry)

[8] = Stability in human liver microsomes assessed as parent compound remaining after 2 hrs by LC-MS/MS analysis; assay type: ADME, microsome; settings: read-out: Stability
[9] = Stability in rat liver microsomes assessed as parent compound remaining after 2 hrs by LC-MS/MS analysis; assay type: ADME, microsome; settings: read-out: Stability
[10] = target: T1, Nuclear receptor ROR-gamma; experiment: Displacement of [3H]-Digoxin from recombinant human GST-fused RORgammat LBD after 1 to 4 hrs by scintillation counting method
[11] = target: T7, Nuclear receptor ROR-alpha (Homo sapiens, UniProt P35398); experiment: Displacement of [3H]T0901317 from recombinant human GST-fused RORalpha LBD after 1 to 4 hrs by microbeta scintillation counting method
T7 sequence (P35398 whole entry): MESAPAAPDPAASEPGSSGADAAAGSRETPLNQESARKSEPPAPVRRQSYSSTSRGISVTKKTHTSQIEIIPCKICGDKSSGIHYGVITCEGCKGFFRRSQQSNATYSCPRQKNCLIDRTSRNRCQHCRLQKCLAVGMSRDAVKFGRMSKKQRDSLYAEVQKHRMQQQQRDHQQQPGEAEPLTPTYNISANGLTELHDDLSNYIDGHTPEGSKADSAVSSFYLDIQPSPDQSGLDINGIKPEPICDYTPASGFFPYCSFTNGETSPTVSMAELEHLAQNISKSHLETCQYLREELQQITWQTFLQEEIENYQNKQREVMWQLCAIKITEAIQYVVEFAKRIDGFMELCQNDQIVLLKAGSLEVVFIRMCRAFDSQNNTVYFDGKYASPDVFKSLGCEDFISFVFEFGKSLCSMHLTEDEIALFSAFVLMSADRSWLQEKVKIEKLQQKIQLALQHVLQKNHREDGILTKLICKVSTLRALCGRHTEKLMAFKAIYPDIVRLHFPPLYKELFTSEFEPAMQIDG

[12] = target: T8, Nuclear receptor ROR-beta (Homo sapiens, UniProt Q92753); experiment: Transrepression of recombinant human GAL4-DBD fused RORbeta LBD expressed in HEK293 cells after 20 hrs by luciferase reporter gene assay; assay type: cell-based
T8 sequence (Q92753 whole entry): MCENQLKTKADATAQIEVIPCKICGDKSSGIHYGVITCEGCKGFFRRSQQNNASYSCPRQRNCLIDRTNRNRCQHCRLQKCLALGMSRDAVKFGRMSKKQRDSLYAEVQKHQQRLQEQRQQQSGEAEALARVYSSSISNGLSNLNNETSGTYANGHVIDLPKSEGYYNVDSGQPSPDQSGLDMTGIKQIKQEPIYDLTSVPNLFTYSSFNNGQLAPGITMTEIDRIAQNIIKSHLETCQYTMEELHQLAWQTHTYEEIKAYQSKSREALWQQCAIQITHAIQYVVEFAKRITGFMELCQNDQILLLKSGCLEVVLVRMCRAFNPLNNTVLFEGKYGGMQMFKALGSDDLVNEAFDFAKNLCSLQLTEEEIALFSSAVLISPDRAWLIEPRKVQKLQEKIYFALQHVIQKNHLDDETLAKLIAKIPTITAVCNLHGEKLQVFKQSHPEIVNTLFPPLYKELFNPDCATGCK

[13] = target: T6, Nuclear receptor ROR-gamma; experiment: Transrepression of RORgammat in anti-CD3/CD28 stimulated C57BL/6 mouse CD4-positive T cells assessed as suppression of T cell differentiation to Th17 cells by measuring reduction in IL-17A level after 4 days by ELISA
[14] = Solubility of the compound in NaCl/HCl buffer at pH 1.2 by shake-flask method; assay type: physicochemical

IC50 [1]: 33 nM | Efficacy [2]: 93% | EC50 [3]: > 30000 nM | solubility thermodynamic [4]: 31 µM (≈ 15 µg/mL) | EC50 [5]: > 30000 nM | Efficacy [6]: 78% | IC50 [7]: 550 nM | remaining at 2 h [8]: 75% | remaining at 2 h [9]: 70% | IC50 [10]: < 30 nM | IC50 [11]: > 10000 nM | IC50 [12]: > 10000 nM | IC50 [13]: 1100 nM | solubility thermodynamic [14]: 39 µM (≈ 18.8 µg/mL)
SMILES: CCS(=O)(=O)c1ccc(CC(=O)Nc2ccc(C(C)(C)C(=O)Nc3ccc(F)cc3)cc2)cc1
